Where “and” joins values, the source holds several entries; their conditions need not be identical. Identical values can stand only once. Like-named read-outs stand apart in the source and are kept apart here.
Tests used:
[1] = Solubility in PBS; assay type: physicochemical; conditions: aqueous buffer, acid addition salt form
Method: Growth over 96 h was assessed.

[2] = test system: Her2; assay: Her2 assay (microtiter immunoassay of Her2 degradation); assay type: cell-based, human
Method: Her2 assay. SKBr3 cells were plated in black, clear-bottom microtiter plates (Corning #3603) at 3,000 cells/well in growth medium (100 μl) and allowed to attach for 24 h at 37° C. and 5% CO2. Growth medium (100 μl) with drug or vehicle (DMSO) was carefully added to the wells, and the plates were placed at 37° C. and 5% CO2. Following 24 h incubation with drugs, wells were washed with ice-cold Tris buffer saline (TBS) containing 0.1% Tween 20 (TBST) (200 μl). A house vacuum source attached to an eight-channel aspirator was used to remove the liquid from the plates. Further, methanol (100 μl at −20° C.) was added to each well, and the plate was placed at 4° C. for 10 min. Methanol was removed by washing with TBST (2×200 μl). After further incubation at RT for 2 h with SuperBlockR (Pierce 37535) (200 μl), anti-Her-2 (c-erbB-2) antibody (Zymed Laboratories #28-004) (100 μl, 1:200 in SuperBlockR) was placed in each well. The plate was incubated overnight at 4° C. For control wells, 1:200 dilution of a normal rabbit IgG (Santa Cruz #SC-2027) in SuperblockR was used. Each well was washed with TBST (2×200 μl) and incubated at RT for 2 h with an anti-rabbit HRP-linked antibody (Sigma, A-0545) (100 μl, 1:2000 in SuperBlockR). Unreacted antibody was removed by washing with TBST (3×200 μl), and the ECLTM Western blotting reagent (Amersham #RPN2106) (100 μL) was added. The plate was immediately read in an Analyst AD plate reader (Molecular Devices). Each well was scanned for 0.1 s. Readings from wells containing only control IgG and the corresponding HRP-linked secondary antibody were set as background and deducted from all measured values.

[3] = test system: MDA-MB-468 cells; assay: Anti-mitotic assay (Tg-3 microtiter immunoassay); assay type: cell-based, human; conditions: 24 h, concentration dependent increase in Tg-3 luminescence
Method: Anti-mitotic assay. Black, clear-bottom microtiter 96-well plates (Corning Costar #3603) were used to accommodate experimental cultures. MDA-MB-468 cells were seeded in each well at 8,000 cells per well in growth medium (100 μL), and allowed to attach overnight at 37° C. and 5% CO2. Growth medium (100 μL) with drug or vehicle (DMSO) was gently added to the wells, and the plates were incubated at 37° C. and 5% CO2 for 24 h. Wells were washed with ice-cold TBST (2×200 μL). A house vacuum source attached to an eight-channel aspirator was used to remove the liquid from the 96-well plates. Ice-cold methanol (100 μL) was added to each well, and the plate was placed at 4° C. for 5 min. Methanol was removed by suction and plates were washed with ice-cold TBST (2×200 μL). Plates were further incubated with SuperBlock® blocking buffer (Pierce #37535) (200 μL) for 2 h at RT. The Tg-3 antibody (gift of Dr. Davies, Albert Einstein College of Medicine) diluted 1:200 in SuperBlock® was placed in each well (100 μL) except the control column that was treated with control antibody (Mouse IgM, NeoMarkers, NC-1030-P). After 72 h, wells were washed with ice-cold TBST (2×200 μL). […] Un-reacted antibody was removed by washing the plates with ice-cold TBST (3×200 μL) for 5 min on a shaker. The ECLTM Western Blotting Detection Reagents 1 and 2 in 1:1 mix (100 μL) was placed in each well and the plates were read immediately in an Analyst AD plate reader (Molecular Devices). Luminescence readings were imported into SOFTmax PROR 4.3.1. Anti-mitotic activity was defined as a concentration dependent increase in luminescence readings in compound-treated wells as compared to DMSO only treated wells.

[4] = test system: SKBr3 breast cancer cells; assay: Growth inhibition, sulforhodamine B assay; assay type: cell-based, human; conditions: average of 3 measurements
Method: (§1) Cell culture. The human breast cancer cell lines SKBr3 and MDA-MB-468 were a gift from Dr. Neal Rosen (MSKCC). Cells were maintained in 1:1 mixture of DME:F12 supplemented with 2 mM glutamine, 50 units/mL penicillin, 50 […] and 10% heat inactivated fetal bovine serum (Gemini Bioproducts #100-10b) and incubated at 37° C., 5% CO2. Growth assays. Growth inhibition studies were performed using the sulforhodamine B assay as previously described.^29 In summary, experimental cultures were plated in microtiter plates (Nunc #167008). One column of wells was left without cells to serve as the blank control. Cells were allowed to attach overnight. The following day, growth medium having either drug or DMSO at twice the desired initial concentration was added to the plate in triplicate and was serially diluted at a 1:1 ratio in the microtiter plate. After 72 h of growth, the cell number in treated versus control wells was estimated after treatment with 50% trichloroacetic acid and staining with 0.4% sulforhodamine B in 1% acetic acid. […] Normal human renal proximal tubular epithelial (RPTEC) cells were purchased pre-seeded in 96-well plates (Clonetics, CC-3190). Upon receipt, cells were placed in a humidified incubator at 37° C., 5% CO2 and allowed to equilibrate for 3 h. Media was removed by suction and replaced with fresh media provided by the manufacturer. Cells were then treated with either drugs or DMSO for 72 h and the IC50 values were determined as described above.

[5] = target: recombinant Hsp90α (Homo sapiens (Human), UniProt P07900); assay: Hsp90 competition assay (fluorescence polarization), recombinant protein; assay type: binding; conditions: average of 3 measurements, displacement of fluorescent GM
Method: Hsp90 competition assay. Fluorescence polarization measurements were performed on an Analyst AD instrument (Molecular Devices, Sunnyvale, Calif.). […] The assay buffer (HFB) contained 20 mM HEPES (K) pH 7.3, 50 mM KCl, 5 mM MgCl2, 20 mM Na2MoO4, 0.01% NP40. Before each use, 0.1 mg/mL bovine gamma globulin (BGG) (Panvera Corporation, Madison, Wis.) and 2 mM DTT (Fisher Biotech, Fair Lawn, N.J.) were freshly added. GM-BODIPY was synthesized as previously reported^23a and was dissolved in DMSO to form 10 μM solutions.

[6] = test system: Hsp90 lung; assay: Hsp90 competition assay, lung homogenate; conditions: for Lung/SKBr3: ratio of EC50 Hsp90 values; for EC50: read-out: EC50 Hsp90 lung, normal tissue
Method: (§3) Hsp90 competition assay. Fluorescence polarization measurements were performed on an Analyst AD instrument (Molecular Devices, Sunnyvale, Calif.). […] The assay buffer (HFB) contained 20 mM HEPES (K) pH 7.3, 50 mM KCl, 5 mM MgCl2, 20 mM Na2MoO4, 0.01% NP40. Before each use, 0.1 mg/mL bovine gamma globulin (BGG) (Panvera Corporation, Madison, Wis.) and 2 mM DTT (Fisher Biotech, Fair Lawn, N.J.) were freshly added. […] Cell lysates were prepared rupturing cellular membranes by freezing at −70° C. and dissolving the cellular extract in HFB with added protease and phosphotase inhibitors. Organs were harvested from a healthy mouse and homogenized in HFB. Saturation curves were recorded in which GM-BODIPY (5 nM) was treated with increasing amounts of cellular lysates.

[7] = test system: Hsp90 heart; assay: Hsp90 competition assay, heart homogenate; conditions: for Heart/SKBr3: ratio of EC50 Hsp90 values; for EC50: read-out: EC50 Hsp90 heart, normal tissue
Method: as §3

[8] = test system: Hsp90 SKBr3; assay: Hsp90 competition assay, SKBr3 cell lysate; conditions: read-out: EC50 Hsp90 SKBr3
Method: Hsp90 competition assay. Fluorescence polarization measurements were performed on an Analyst AD instrument (Molecular Devices, Sunnyvale, Calif.). […] The assay buffer (HFB) contained 20 mM HEPES (K) pH 7.3, 50 mM KCl, 5 mM MgCl2, 20 mM Na2MoO4, 0.01% NP40. Before each use, 0.1 mg/mL bovine gamma globulin (BGG) (Panvera Corporation, Madison, Wis.) and 2 mM DTT (Fisher Biotech, Fair Lawn, N.J.) were freshly added. GM-BODIPY was synthesized as previously reported^23a and was dissolved in DMSO to form 10 μM solutions. Recombinant Hsp90α was purchased from Stressgen Bioreagents (cat. No. SPP-776), (Victoria, Canada). Cell lysates were prepared rupturing cellular membranes by freezing at −70° C. and dissolving the cellular extract in HFB with added protease and phosphotase inhibitors. […] Saturation curves were recorded in which GM-BODIPY (5 nM) was treated with increasing amounts of cellular lysates.

[9] = Tumor and plasma concentration in MDA-MB-468 xenografted mice; assay type: in vivo; conditions: 24 hours after intraperitoneal injection
Method: (§2) Mice xenografted with MDA-MB-468 human breast cancer tumors were treated by intraperitoneal injection with Compound 5 at a dosage levels of 25, 50, 75, 100 and 150 mg/kg. The concentration of Compound 5 in the tumor 24 hours after administration was determined. […] Compound 5 was further tested for its effects on the pharmacodynamic marker Raf-1 kinase. Hsp90 stabilizes this kinase and maintains it in ready-to-be-activated conformation. Inhibition of Hsp90 leads to disruption of the complex and further ubiquitinylation and degradation of Raf-1 by the proteasome. Thus, Raf-1 degradation in tumors is a functional read-out of Hsp90 inhibition.

[10] = test system: Raf-1 kinase; assay: Raf-1 protein levels in MDA-MB-468 tumors; assay type: in vivo, mice; conditions: all dosage levels, FIG. 10B
Method: as §2

[11] = test system: PI3 kinase; assay: PI3 kinase expression in MDA-MB-468 tumors; assay type: in vivo, mice; conditions: protein unaffected by Hsp90 inhibitors
[12] = test system: SCLC cell lines; assay: Cell death and apoptosis across the SCLC cell lines; assay type: cell-based; conditions: each of the SCLC cell lines, FIGS. 6A and B
[13] = test system: Hsp90 Brain; assay: Hsp90 competition assay, brain homogenate; assay type: binding, mouse; conditions: for EC50: normal tissue; for Brain/SKBr3: ratio of EC50 Hsp90 values
Method: as §3

[14] = test system: renal proximal tubular epithelial cells (RPTEC); assay: Growth inhibition of normal RPTEC cells; assay type: cell-based, human; conditions: for IC50: 72 h, read-out: IC50 RPTEC
Method: as §1

[15] = Homo sapiens, SK-BR-3; Her2 degradation in SKBr3 cells, 24 h; average of 3 measurements
[16] = Her2 degradation in SKBr3 cells, 24 h; average of 3 measurements

Compound	IC50 [2, 15] [µM]	Anti-mitotic [3]	IC50 ([4]; Homo sapiens, SK-BR-3, 72 h) [µM]	EC50 ([5]; read-out: EC50 Hsp90-α) [µM]	other results
CC(C)NCCCn1c(Cc2cc3c(cc2I)OCO3)nc2c(N)nc(F)nc21 [Example 8, 2-Fluoro-8-(6-iodo-benzo[1,3]dioxol-5-ylmethyl)-9-(3-isopropylamino-propyl) adenine]	0.08 ± 0.01	Yes	0.045 ± 0.006	0.0504 ± 0.004	solubility [1]: > 5 mM
C#CCCCn1c(Cc2cc(OC)c(OC)cc2Br)nc2c(N)nc(F)nc21 [Example 13, 2-Fluoro-8-(2-bromo-4,5-dimethoxy-benzyl)-9-(pent-4-ynyl)adenine]	> 50	No	55 ± 2.3	> 15	
Nc1ncnc2nc(Sc3cc(Cl)c(Cl)cc3Cl)[nH]c12 [Example 4, 8-(2,4,5-Trichloro-phenylsulfanyl)adenine]	47.8 ± 3.2	Yes	36 ± 0.2	15.4 ± 2.2	
C#CCCCn1c(Sc2cc(Cl)c(Cl)cc2Cl)nc2c(N)ncnc21 [Example 2, 9-(Pent-4-ynyl)-8-(2,4,5-trichloro-phenylsulfanyl)adenine]	58 ± 1.4	No	48.4 ± 2.5	8.5 ± 0.1	
C#CCCCn1c(Cc2cc(OC)c(OC)cc2I)nc2c(N)nc(F)nc21 [Example 12, 2-Fluoro-8-(2-iodo-4,5-dimethoxy-benzyl)-9-(pent-4-ynyl)adenine]	> 50	No	> 50	> 15	
C#CCCCn1c(Cc2cc3c(cc2Cl)OCO3)nc2c(N)nc(F)nc21 [Example 7, 2-Fluoro-8-(6-chloro-benzo[1,3]dioxol-5-ylmethyl)-9-(pent-4-ynyl)adenine]	0.3 ± 0.015	Yes	0.25 ± 0.03	0.0772 ± 0.001	
COc1cc(Sc2nc3c(N)ncnc3n2CCOC(C)C)c(Cl)cc1Cl [Example 3, 9-(2-Isopropoxy-ethyl)-8-(2,4-dichloro-5-methoxy-benzenesulfanyl)adenine]		No		5 ± 1.1	IC50 [2, 16]: 58.3 ± 2.2 µM; IC50 ([4]; 72 h): 16.1 ± 0.7 µM
C#CCCCn1c(Cc2cc3c(cc2Br)OCO3)nc2c(N)nc(F)nc21 [Example 6, 2-Fluoro-8-(6-bromo-benzo[1,3]dioxol-5-ylmethyl)-9-(pent-4-ynyl)adenine]	0.21 ± 0.01	Yes	0.215 ± 0.055	0.0565 ± 0.002	Lung/SKBr3 [6]: 134; EC50 [6]: 5.2 ± 0.21 µM; Heart/SKBr3 [7]: 343; EC50 [7]: 13.3 ± 0.21 µM; EC50 [8]: 0.0388 ± 0.003 µM
CC(C)NCCCn1c(Sc2cc3c(cc2Br)OCO3)nc2c(N)ncnc21 [Example 5, 8-(6-Bromo-benzo[1,3]dioxol-5-ylsulfanyl)-9-(3-isopropylamino-propyl)adenine]		Yes	0.142 ± 0.022		detection in plasma [9]: could not be detected; Raf-1 levels (% control) [10]: substantial decrease; expression of PI3 kinase [11]: no change in expression
C#CCCCn1c(Sc2cc3c(cc2Br)OCO3)nc2c(N)ncnc21 [Example 1, 9-(Pent-4-ynyl)-8-(6-bromo-benzo[1,3]dioxol-5-ylsulfanyl)adenine]		Yes			IC50 [2, 16]: 0.365 ± 0.045 µM; IC50 ([2]; Homo sapiens, SK-BR-3, 24 h, Her2 degradation in SKBr3 cells, average of 3 measurements): 0.3 ± 0.05 µM; Lung/SKBr3 [6]: 735; EC50 [6]: 14.7 ± 1.7 µM; induction of apoptosis [12]: induced apoptosis; EC50 [13]: 40.2 ± 25.3 µM; Brain/SKBr3 [13]: 2000; IC50 ([14]; Homo sapiens, RPTEC): 4.1 ± 0.9 µM; Heart/SKBr3 [7]: 3265; EC50 [7]: 65.3 ± 9.9 µM; EC50 ([5]; EC50 Hsp90-α): 0.03 µM and 0.0508 µM; EC50 [8]: 0.02 ± 0.06 µM
C#CCCCn1c(Sc2cc3c(cc2I)OCO3)nc2c(N)ncnc21 [Example 10, 8-(6-Iodo-benzo[1,3]dioxol-5-ylsulfanyl)-9-(pent-4-ynyl)adenine]	0.1 ± 0.01	Yes	0.09 ± 0.002		Lung/SKBr3 [6]: 136; EC50 [6]: 2.2 ± 0.4 µM; Heart/SKBr3 [7]: 370; EC50 [7]: 6 ± 0.2 µM; EC50 [8]: 0.0161 ± 0.001 µM
C#CCCCn1c(Cc2cc3c(cc2I)OCO3)nc2c(N)nc(F)nc21 [Example 11, 2-Fluoro-8-(6-iodo-benzo[1,3]dioxol-5-ylmethyl)-9-(pent-4-ynyl)adenine]	0.09 ± 0.01	Yes	0.09 ± 0.03	0.0223 ± 0.002	
9-(Pent-4-ynyl)-8-(2,4,5-trichloro-phenylsulfanyl)adenine [Example 2]					EC50 [13]: 26.7 ± 7.7 µM; Brain/SKBr3 [13]: 298; IC50 ([14]; normal cells): 28.1 ± 2.2 µM; RPTEC/SKBr3 ([14]; ratio of growth IC50 values): 15.6; EC50 [8]: 0.09 ± 0.03 µM
C#CCCCn1c(Cc2cc(OC)c(OC)cc2Cl)nc2c(N)nc(F)nc21 [Example 14, 2-Fluoro-8-(2-chloro-4,5-dimethoxy-benzyl)-9-(pent-4-ynyl)adenine]	30 ± 1	No	20.6 ± 6.7	4.6 ± 0.02	

— US10167285B2, “Small-molecule HSP90 inhibitors” (Memorial Sloan Kettering Cancer Center, priority 2005, dated 2019)
